Results published in ChEMBL document CHEMBL6134845, “O-derivatization of natural tropolone and β-thujaplicin leading to effective inhibitors of human carbonic anhydrases IX and XII” (Eur J Med Chem, 2025).

Experiments:
Carbonic anhydrase 1 = Carbonic anhydrase 1 (Homo sapiens, UniProt P00915); assay: Inhibition of human CA-I incubated for 15 mins by stopped-flow CO2 hydration assay
Carbonic anhydrase 7 = Carbonic anhydrase 7 (Homo sapiens, UniProt P43166); assay: Inhibition of human CA-VII incubated for 15 mins by stopped-flow CO2 hydration assay
Sequence of Carbonic anhydrase 7 (P43166 whole entry): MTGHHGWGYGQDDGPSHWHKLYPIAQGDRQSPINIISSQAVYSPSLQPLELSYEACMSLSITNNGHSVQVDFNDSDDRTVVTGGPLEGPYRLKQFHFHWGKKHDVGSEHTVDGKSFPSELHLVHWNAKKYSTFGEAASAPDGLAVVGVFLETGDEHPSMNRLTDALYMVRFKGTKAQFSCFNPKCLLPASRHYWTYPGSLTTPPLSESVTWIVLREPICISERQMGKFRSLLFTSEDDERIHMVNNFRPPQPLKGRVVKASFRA

Carbonic anhydrase 9 = Carbonic anhydrase 9 (Homo sapiens, UniProt Q16790)
Description: Inhibition of human CA-IX incubated for 15 mins by stopped-flow CO2 hydration assay

[1] = biological target: Carbonic anhydrase 5A, mitochondrial (Homo sapiens, UniProt P35218); assay: Inhibition of human CA-VA incubated for 15 mins by stopped-flow CO2 hydration assay
Sequence of Carbonic anhydrase 5A, mitochondrial (P35218 whole entry): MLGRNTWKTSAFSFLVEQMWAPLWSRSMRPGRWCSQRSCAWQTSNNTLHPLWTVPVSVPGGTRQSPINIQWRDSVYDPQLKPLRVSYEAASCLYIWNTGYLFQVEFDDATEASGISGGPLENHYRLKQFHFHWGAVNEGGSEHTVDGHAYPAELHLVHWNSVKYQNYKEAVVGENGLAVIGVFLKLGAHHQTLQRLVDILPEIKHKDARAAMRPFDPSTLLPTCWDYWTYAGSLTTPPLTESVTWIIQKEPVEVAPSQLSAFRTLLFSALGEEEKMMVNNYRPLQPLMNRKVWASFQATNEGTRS

Homo sapiens [2] = organism: Homo sapiens; assay: Inhibition of […] human CA-II H94C mutant using p-nitrophenylacetate as substrate at 500 uM preincubated for 10 mins followed by substrate addition by absorbance based assay relative to control
Homo sapiens [3] = organism: Homo sapiens; assay: Inhibition of […] human CA-II H94D mutant using p-nitrophenylacetate as substrate at 500 uM preincubated for 10 mins followed by substrate addition by absorbance based assay relative to control
Carbonic anhydrase 2 [4] = biological target: T1, Carbonic anhydrase 2 (Homo sapiens, UniProt P00918); assay: Inhibition of wild-type human CA-II using p-nitrophenylacetate as substrate preincubated for 15 mins followed by substrate addition measured for 20 mins by absorbance based assay
[5] = Inhibition of […] human CA-II L198G mutant using p-nitrophenylacetate as substrate preincubated for 15 mins followed by substrate addition measured for 20 mins by absorbance based assay
Carbonic anhydrase 2 [6] = biological target: T1, Carbonic anhydrase 2; assay: Inhibition of human CA-II incubated for 15 mins by stopped-flow CO2 hydration assay
Carbonic anhydrase 12 = Carbonic anhydrase 12 (Homo sapiens, UniProt O43570); assay: Inhibition of human CA-XII incubated for 15 mins by stopped-flow CO2 hydration assay
Sequence of Carbonic anhydrase 12 (O43570 whole entry): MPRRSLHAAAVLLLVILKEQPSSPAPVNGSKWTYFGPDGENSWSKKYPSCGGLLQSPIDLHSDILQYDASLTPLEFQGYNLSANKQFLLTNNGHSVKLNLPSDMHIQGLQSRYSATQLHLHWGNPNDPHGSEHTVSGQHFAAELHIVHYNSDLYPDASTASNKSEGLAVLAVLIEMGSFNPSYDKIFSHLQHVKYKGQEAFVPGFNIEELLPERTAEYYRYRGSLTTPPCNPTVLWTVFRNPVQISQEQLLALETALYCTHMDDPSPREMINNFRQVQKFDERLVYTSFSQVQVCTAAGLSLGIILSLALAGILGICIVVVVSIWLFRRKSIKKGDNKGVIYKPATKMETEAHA

Carbonic anhydrase 2 [7] = biological target: T1, Carbonic anhydrase 2; assay: Inhibition of wild-type human CA-II using p-nitrophenylacetate as substrate at 500 uM preincubated for 10 mins followed by substrate addition by absorbance based assay relative to control
[8] = Antiproliferative activity against human PBMC cells assessed as decrease in cell viability at 10 uM incubated for 48 hrs by Cell Titer Glo assay; format: toxicity, cell-based
[9] = Induction of apoptosis in human BZB-resistant NCI-H929 cells assessed as viable cells at 2.5 uM incubated for 48 hrs by Annexin V/7-AAD staining based FACS analysis (reference value: 86.7 %); format: functional; details: BZB-resistant […] cell, read-out: Activity
[10] = Induction of apoptosis in human BZB-resistant NCI-H929 cells assessed as viable cells at 5 uM incubated for 48 hrs by Annexin V/7-AAD staining based FACS analysis (reference value: 86.7 %); format: functional; details: BZB-resistant […] cell, read-out: Activity
[11] = Induction of apoptosis in human BZB-resistant NCI-H929 cells assessed as viable cells at 10 uM incubated for 48 hrs by Annexin V/7-AAD staining based FACS analysis (reference value: 86.7 %); format: functional; details: BZB-resistant […] cell, read-out: Activity

Sequence of Carbonic anhydrase 1 (P00915 whole entry): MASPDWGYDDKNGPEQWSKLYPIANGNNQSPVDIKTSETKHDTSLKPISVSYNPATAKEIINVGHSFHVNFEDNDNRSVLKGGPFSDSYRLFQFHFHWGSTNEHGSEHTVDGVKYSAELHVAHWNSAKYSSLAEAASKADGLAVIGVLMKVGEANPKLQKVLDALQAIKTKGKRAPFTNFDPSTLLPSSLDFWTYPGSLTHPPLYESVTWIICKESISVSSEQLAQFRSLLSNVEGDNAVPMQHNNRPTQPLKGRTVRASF

O=C(Oc1cccccc1=O)c1ccc([N+](=O)[O-])cc1
Ki (Carbonic anhydrase 1): 84.4 µM
Ki (Carbonic anhydrase 7): > 100 µM
Ki (Carbonic anhydrase 9): > 100 µM

CC(C)c1cccc(OC(=O)c2ccc([N+](=O)[O-])cc2)c(=O)c1
Ki (Carbonic anhydrase 1): > 100 µM
Ki [1]: > 100 µM
Ki (Carbonic anhydrase 7): 9.6 µM
Ki (Carbonic anhydrase 9): 0.37 µM

O=c1cccccc1OCCCCCBr
Ki (Carbonic anhydrase 1): > 100 µM
Ki (Carbonic anhydrase 7): 1.52 µM
Ki (Carbonic anhydrase 9): 0.54 µM

Cc1ccc(S(=O)(=O)Oc2cccc(C(C)C)cc2=O)cc1
Ki (Carbonic anhydrase 1): > 100 µM
Ki [1]: 4.45 µM
Ki (Carbonic anhydrase 7): 5.27 µM
Ki (Carbonic anhydrase 9): 0.4 µM

CC(C)c1cccc(OCc2ccccc2C(F)(F)F)c(=O)c1
Ki [1]: > 100 µM
Ki (Carbonic anhydrase 7): > 100 µM
Ki (Carbonic anhydrase 9): > 100 µM

CC(C)c1cccc(OCc2ccccc2[N+](=O)[O-])c(=O)c1
Ki [1]: 21.7 µM
Ki (Carbonic anhydrase 7): 6.18 µM
Ki (Carbonic anhydrase 9): 0.94 µM

CC(C)c1cccc(OCCCCCOc2cccc(C(C)C)cc2=O)c(=O)c1
Ki (Carbonic anhydrase 1): > 100 µM
Ki [1]: 31.6 µM
Ki (Carbonic anhydrase 7): 7.1 µM
Ki (Carbonic anhydrase 9): 1.33 µM

O=c1cccccc1OCCCCl
Ki (Carbonic anhydrase 1): > 100 µM
Ki (Carbonic anhydrase 7): 5.2 µM
Ki (Carbonic anhydrase 9): 8.94 µM

O=c1cccccc1O [TROPOLONE]
inhibition (Homo sapiens [2]): 0%
inhibition (Homo sapiens [3]): 47%
Ki (Carbonic anhydrase 2 [4]): 1350 µM
Ki [5]: 245 µM
Ki (Carbonic anhydrase 1): > 100 µM
Ki (Carbonic anhydrase 2 [6]): > 100 µM
Ki [1]: > 100 µM
Ki (Carbonic anhydrase 7): > 100 µM
Ki (Carbonic anhydrase 9): > 100 µM
Ki (Carbonic anhydrase 12): > 100 µM

CC(C)c1cccc(=O)c(O)c1 [HINOKITIOL]
inhibition (Carbonic anhydrase 2 [7]): 16%
inhibition (Homo sapiens [2]): 0%
inhibition (Homo sapiens [3]): 47%
Ki (Carbonic anhydrase 1): 4.98 µM
Ki (Carbonic anhydrase 2 [6]): 90.6 µM
Ki [1]: 7.5 µM
Ki (Carbonic anhydrase 7): > 100 µM
Ki (Carbonic anhydrase 9): 23.9 µM
Ki (Carbonic anhydrase 12): > 100 µM

CC(C)c1cccc(OCc2ccc(Br)cc2)c(=O)c1
Ki (Carbonic anhydrase 1): > 100 µM
Ki [1]: 7.95 µM
Ki (Carbonic anhydrase 7): 0.96 µM
Ki (Carbonic anhydrase 9): 0.26 µM

O=C(O)COc1cccccc1=O
Ki [1]: 8.11 µM
Ki (Carbonic anhydrase 9): 25.6 µM

O=c1cccccc1OCc1ccccc1[N+](=O)[O-]
Ki (Carbonic anhydrase 1): 8.01 µM
Ki [1]: > 100 µM
Ki (Carbonic anhydrase 7): > 100 µM
Ki (Carbonic anhydrase 9): > 100 µM

O=c1cccccc1OCc1cccc([N+](=O)[O-])c1
Ki (Carbonic anhydrase 1): > 100 µM
Ki (Carbonic anhydrase 7): > 100 µM
Ki (Carbonic anhydrase 9): 34.5 µM

N#Cc1ccc(COc2cccccc2=O)cc1
Ki (Carbonic anhydrase 1): 8.31 µM
Ki [1]: > 100 µM
Ki (Carbonic anhydrase 7): > 100 µM
Ki (Carbonic anhydrase 9): > 100 µM

CC(C)c1cccc(OCc2cccc3ccccc23)c(=O)c1
Ki (Carbonic anhydrase 1): > 100 µM
Ki [1]: 89.4 µM
Ki (Carbonic anhydrase 7): 3.95 µM
Ki (Carbonic anhydrase 9): 0.53 µM

O=c1cccccc1OCc1cccc2ccccc12
Ki (Carbonic anhydrase 1): > 100 µM
Ki (Carbonic anhydrase 7): 2.82 µM
Ki (Carbonic anhydrase 9): 2.28 µM

CC(C)c1cccc(=O)c(OCc2ccccc2[N+](=O)[O-])c1
Ki (Carbonic anhydrase 1): > 100 µM
Ki [1]: 8.96 µM
Ki (Carbonic anhydrase 7): 5.41 µM
Ki (Carbonic anhydrase 9): 1.41 µM

O=c1cccccc1S
Ki (Carbonic anhydrase 2 [4]): 96 µM
Ki [5]: 61 µM

O=C(Oc1cccccc1=O)C12CC3CC(CC(C3)C1)C2
Ki [1]: 85.6 µM
Ki (Carbonic anhydrase 9): 43.5 µM

Cc1ccc(S(=O)(=O)Oc2cccccc2=O)cc1
Ki (Carbonic anhydrase 1): 94.2 µM
Ki [1]: > 100 µM
Ki (Carbonic anhydrase 7): > 100 µM
Ki (Carbonic anhydrase 9): > 100 µM

O=c1cccccc1OCc1ccc([N+](=O)[O-])cc1
Ki (Carbonic anhydrase 1): 6.22 µM
Ki [1]: > 100 µM
Ki (Carbonic anhydrase 7): > 100 µM
Ki (Carbonic anhydrase 9): 13.3 µM

O=c1cccccc1OCc1ccccc1C(F)(F)F
Ki (Carbonic anhydrase 1): > 100 µM
Ki [1]: 6.63 µM
Ki (Carbonic anhydrase 7): 6.19 µM
Ki (Carbonic anhydrase 9): 4.3 µM

Cc1ccc(S(=O)(=O)Oc2cc(C(C)C)cccc2=O)cc1
Ki (Carbonic anhydrase 1): > 100 µM
Ki (Carbonic anhydrase 7): 9.33 µM
Ki (Carbonic anhydrase 9): 0.42 µM
Activity [8]: Non-toxic
viability at 2.5 µM [9]: 78.1%
viability at 5 µM [10]: 74.5%
viability at 10 µM [11]: 36.7%

C#CCOc1cccccc1=O
Ki (Carbonic anhydrase 1): 0.05 µM
Ki [1]: > 100 µM

CC(C)c1cccc(=O)c(OCc2ccccc2C(F)(F)F)c1
Ki [1]: 83.5 µM
Ki (Carbonic anhydrase 7): > 100 µM

O=c1cccccc1OCc1ccc(Br)cc1
Ki (Carbonic anhydrase 1): > 100 µM
Ki [1]: > 100 µM
Ki (Carbonic anhydrase 9): 37.7 µM
